Reference: ChEMBL document CHEMBL4665835, “Synthesis and pharmacological evaluation of 11-(1,6-dimethyl-1,2,3,6-tetrahydropyridin-4-yl)-5H-dibenzo[b,e][1,4]diazepines with clozapine-like receptor occupancy at dopamine D/D receptor” (Bioorg Med Chem Lett, 2020)
Values belong to the molecule of their own block, whether it stands above or below them.

Assays:
[1] = In vivo receptor occupancy at human dopamine D1 receptor in schizophrenia patient brain at 10 mCi, iv by PET scanning; assay type: functional
[2] = In vivo receptor occupancy at human dopamine D2 receptor in schizophrenia patient brain at 10 mCi, iv by PET scanning; assay type: functional
[3] = target: Voltage-gated inwardly rectifying potassium channel KCNH2 (Homo sapiens, UniProt Q12809); assay: Inhibition of human ERG
[4] = Drug metabolism in human hepatocyte microsome fraction assessed as GSH conjugate formation by LC-MS/MS analysis; assay type: ADME; conditions: microsomes
D(1A) dopamine receptor [5] = target: T1, D(1A) dopamine receptor (Homo sapiens, UniProt P21728); assay: Binding affinity to human dopamine D1 receptor
D(2) dopamine receptor = D(2) dopamine receptor (Homo sapiens, UniProt P14416)
Description: Binding affinity to human dopamine D2 receptor

D(1A) dopamine receptor [6] = target: T1, D(1A) dopamine receptor; assay: Potency index, ratio of Clozapine Ki to compound Ki for binding affinity to human dopamine D1 receptor
[7] = In vivo receptor occupancy at dopamine D1 receptor in sc dosed rat brain by measuring free plasma concentration pretreated for 1 hr in presence of SCH-23390 by LC-MS/MS analysis; assay type: functional
[8] = In vivo receptor occupancy at dopamine D1 receptor in sc dosed rat brain by measuring free plasma concentration pretreated for 1 hr in presence of raclopride by LC-MS/MS analysis; assay type: functional
[9] = target: 5-hydroxytryptamine receptor 2A (Homo sapiens, UniProt P28223); assay: Binding affinity to human 5HT2A receptor
5-hydroxytryptamine receptor 2A, sequence (P28223 whole entry): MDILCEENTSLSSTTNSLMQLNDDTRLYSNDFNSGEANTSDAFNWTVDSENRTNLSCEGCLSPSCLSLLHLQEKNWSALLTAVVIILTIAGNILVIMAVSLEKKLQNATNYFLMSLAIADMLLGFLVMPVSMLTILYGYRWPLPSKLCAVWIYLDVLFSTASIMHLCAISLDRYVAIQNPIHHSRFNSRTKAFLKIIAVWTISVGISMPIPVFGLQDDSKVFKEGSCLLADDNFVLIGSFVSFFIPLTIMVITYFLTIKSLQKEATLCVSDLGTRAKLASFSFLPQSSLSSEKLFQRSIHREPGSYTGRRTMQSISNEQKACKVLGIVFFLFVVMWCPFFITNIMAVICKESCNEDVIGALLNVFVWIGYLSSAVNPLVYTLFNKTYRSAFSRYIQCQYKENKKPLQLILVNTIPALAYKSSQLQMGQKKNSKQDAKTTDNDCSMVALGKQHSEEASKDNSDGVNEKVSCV

Voltage-gated inwardly rectifying potassium channel KCNH2, sequence (Q12809 whole entry): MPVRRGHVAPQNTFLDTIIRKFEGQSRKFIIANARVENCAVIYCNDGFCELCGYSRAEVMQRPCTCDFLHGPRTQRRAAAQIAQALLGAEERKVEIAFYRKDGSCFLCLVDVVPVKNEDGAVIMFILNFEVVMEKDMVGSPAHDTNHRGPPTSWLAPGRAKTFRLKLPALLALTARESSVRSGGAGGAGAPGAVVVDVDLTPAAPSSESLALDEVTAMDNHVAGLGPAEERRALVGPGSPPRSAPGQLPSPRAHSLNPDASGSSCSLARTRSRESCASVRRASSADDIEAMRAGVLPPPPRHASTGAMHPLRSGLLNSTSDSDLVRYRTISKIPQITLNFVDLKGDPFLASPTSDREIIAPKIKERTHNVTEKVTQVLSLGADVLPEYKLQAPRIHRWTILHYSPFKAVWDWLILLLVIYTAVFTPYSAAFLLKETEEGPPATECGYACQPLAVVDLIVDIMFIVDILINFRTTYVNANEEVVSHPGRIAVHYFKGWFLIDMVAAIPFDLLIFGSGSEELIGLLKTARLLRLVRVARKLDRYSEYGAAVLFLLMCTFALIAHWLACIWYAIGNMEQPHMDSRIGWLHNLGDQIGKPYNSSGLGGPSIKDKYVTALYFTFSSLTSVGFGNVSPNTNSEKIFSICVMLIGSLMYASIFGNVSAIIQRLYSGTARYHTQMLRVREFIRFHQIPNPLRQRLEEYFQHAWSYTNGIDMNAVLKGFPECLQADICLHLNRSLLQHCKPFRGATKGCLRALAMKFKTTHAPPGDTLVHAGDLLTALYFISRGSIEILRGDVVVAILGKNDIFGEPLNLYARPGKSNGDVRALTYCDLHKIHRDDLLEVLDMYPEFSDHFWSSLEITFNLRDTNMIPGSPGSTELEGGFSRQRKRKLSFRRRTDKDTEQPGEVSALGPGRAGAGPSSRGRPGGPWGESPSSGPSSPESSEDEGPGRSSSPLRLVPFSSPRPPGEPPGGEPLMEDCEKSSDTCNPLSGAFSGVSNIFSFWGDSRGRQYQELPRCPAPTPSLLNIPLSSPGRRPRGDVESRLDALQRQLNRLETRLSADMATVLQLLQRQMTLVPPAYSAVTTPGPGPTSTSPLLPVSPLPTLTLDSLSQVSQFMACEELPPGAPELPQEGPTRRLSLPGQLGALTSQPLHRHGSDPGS
D(2) dopamine receptor, sequence (P14416 whole entry): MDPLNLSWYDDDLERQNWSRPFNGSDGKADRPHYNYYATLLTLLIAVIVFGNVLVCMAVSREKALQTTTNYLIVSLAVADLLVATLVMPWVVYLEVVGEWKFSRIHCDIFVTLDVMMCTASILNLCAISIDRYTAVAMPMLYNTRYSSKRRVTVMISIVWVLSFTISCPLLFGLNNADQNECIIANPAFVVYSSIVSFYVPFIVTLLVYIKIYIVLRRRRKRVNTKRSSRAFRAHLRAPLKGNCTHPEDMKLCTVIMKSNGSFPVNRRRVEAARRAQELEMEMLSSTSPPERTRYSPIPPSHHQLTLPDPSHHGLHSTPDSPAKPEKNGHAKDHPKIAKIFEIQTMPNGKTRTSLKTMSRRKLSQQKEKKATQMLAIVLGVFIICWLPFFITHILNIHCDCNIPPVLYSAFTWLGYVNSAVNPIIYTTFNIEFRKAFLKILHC
T1 sequence (P21728 whole entry): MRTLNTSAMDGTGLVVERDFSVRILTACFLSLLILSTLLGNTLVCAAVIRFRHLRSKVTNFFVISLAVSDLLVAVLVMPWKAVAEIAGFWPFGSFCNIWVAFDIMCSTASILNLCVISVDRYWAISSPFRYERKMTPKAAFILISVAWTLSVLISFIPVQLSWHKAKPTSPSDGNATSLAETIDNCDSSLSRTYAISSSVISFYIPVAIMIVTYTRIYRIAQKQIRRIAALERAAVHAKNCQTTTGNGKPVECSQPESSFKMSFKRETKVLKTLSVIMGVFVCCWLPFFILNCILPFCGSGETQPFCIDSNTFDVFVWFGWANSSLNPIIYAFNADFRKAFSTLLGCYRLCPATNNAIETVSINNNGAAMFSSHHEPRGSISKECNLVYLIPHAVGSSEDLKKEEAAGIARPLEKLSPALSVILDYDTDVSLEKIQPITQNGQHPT

Compound: Cc1nc2n(c(=O)c1CCN1CCC(c3noc4cc(F)ccc34)CC1)CCCC2 [RISPERIDONE]
- Occ [1]: 25%
- Occ [2]: 81%

Compound: Cc1ccc2c(c1)N=C(C1=C[C@H](C)N(C)CC1)c1cc(C)ccc1N2
- Ki (D(2) dopamine receptor): > 1400 nM

Compound: C[C@@H]1C=C(C2=Nc3cc(Cl)ccc3Nc3ccccc32)CCN1C
- Drug metabolism [4]: 0.84 µmol/L
- Ki (D(1A) dopamine receptor [5]): 780 nM
- Ki (D(2) dopamine receptor): > 1400 nM

Compound: CN1CCN(C2=Nc3cc(Cl)ccc3Nc3ccccc32)CC1 [CLOZAPINE]
- Occ50 [7]: 24.2 nM
- Occ50 [8]: 73.4 nM
- Occ [1]: 55%
- Occ [2]: 61%

Compound: CN1CCN([C@@H]2C[C@@H](c3ccccc3)c3ccc(Cl)cc32)CC1(C)C [ZICRONAPINE]
- Occ50 [7]: 23 nM
- Occ50 [8]: 6.6 nM
- Drug metabolism [4]: 0 µmol/L

Compound: OCCOCCN1CCN(C2=Nc3ccccc3Sc3ccccc32)CC1 [QUETIAPINE]
- Occ [1]: 12%
- Occ [2]: 30%

Compound: CCc1ccc2c(c1)C(C1=C[C@H](C)N(C)CC1)=Nc1ccccc1N2
- IC50 [3]: 600 nM
- Drug metabolism [4]: 0.86 µmol/L
- Ki (D(1A) dopamine receptor [5]): 4 nM
- Ki (D(2) dopamine receptor): 167 nM

Compound: Cc1ccc2c(c1)N=C(C1=C[C@H](C)N(C)CC1)c1ccccc1N2
- Ki (D(2) dopamine receptor): > 1400 nM

Compound: Cc1ccc2c(c1)N=C(C1=C[C@H](C)N(C)CC1)c1cc(OC(F)(F)F)ccc1N2
- Ki (D(1A) dopamine receptor [5]): 2.4 nM
- Ki (D(2) dopamine receptor): 1220 nM

Compound: C[C@H]1C=C(C2=Nc3cc(Cl)ccc3Nc3ccccc32)CCN1C
- Drug metabolism [4]: 1.3 µmol/L
- Ki (D(1A) dopamine receptor [5]): 51 nM
- Ki (D(2) dopamine receptor): 479 nM

Compound: Cc1cc2c(s1)Nc1ccccc1N=C2N1CCN(C)CC1 [OLANZAPINE]
- Occ50 [7]: 3.8 nM
- Occ50 [8]: 480 nM
- Drug metabolism [4]: 0.077 µmol/L
- Occ [1]: 43%
- Occ [2]: 79%

Compound: Cc1ccc2c(c1)C(C1=C[C@H](C)N(C)CC1)=Nc1ccccc1N2
- Drug metabolism [4]: 0.85 µmol/L
- Ki (D(1A) dopamine receptor [5]): 7.9 nM
- Ki (D(2) dopamine receptor): 819 nM

Compound: COc1ccc2c(c1)C(C1=C[C@H](C)N(C)CC1)=Nc1cc(C)ccc1N2
- Ki (D(2) dopamine receptor): > 1400 nM

Compound: CN1CCC(C2=Nc3cc(Cl)ccc3Nc3ccccc32)=CC1(C)C
- Drug metabolism [4]: 0.99 µmol/L
- Ki (D(1A) dopamine receptor [5]): 55 nM
- Ki (D(2) dopamine receptor): 1180 nM

Compound: CN1CC=C(C2=Nc3cc(Cl)ccc3Nc3ccccc32)CC1
- Drug metabolism [4]: 0.21 µmol/L
- Ki (D(1A) dopamine receptor [5]): 380 nM
- Ki (D(2) dopamine receptor): 1380 nM

Compound: Cc1ccc2c(c1)N=C(C1=C[C@H](C)N(C)CC1)c1cc(F)ccc1N2
- IC50 [3]: 1600 nM
- Drug metabolism [4]: 0.25 µmol/L
- Ki (D(1A) dopamine receptor [5]): 5.5 nM
- Ki (D(2) dopamine receptor): 453 nM

More lines, main results first:

- Drug metabolism [4]: 0.49 µmol/L
- Ki (D(1A) dopamine receptor [5]): 1.1 nM
- Ki (D(2) dopamine receptor): 135 nM
Compound: C[C@H]1C=C(C2=Nc3cc(Cl)ccc3Nc3ccc(C#N)cc32)CCN1C
- IC50 [3]: 600 nM

- Drug metabolism [4]: 0.24 µmol/L
- Ki (D(1A) dopamine receptor [5]): 0.2 nM
- Ki (D(2) dopamine receptor): 127 nM
Compound: C[C@H]1C=C(C2=Nc3cc(Cl)ccc3Nc3ccc(F)cc32)CCN1C
- IC50 [3]: 1200 nM

- Drug metabolism [4]: 0.89 µmol/L
- Ki (D(1A) dopamine receptor [5]): 2 nM
- Ki (D(2) dopamine receptor): 69 nM
Compound: COc1ccc2c(c1)C(C1=C[C@H](C)N(C)CC1)=Nc1cc(Cl)ccc1N2
- IC50 [3]: 1500 nM

- Drug metabolism [4]: 0.38 µmol/L
- Ki (D(1A) dopamine receptor [5]): 0.48 nM
- Ki (D(2) dopamine receptor): 98 nM
Compound: Cc1ccc2c(c1)N=C(C1=C[C@H](C)N(C)CC1)c1cc(Cl)ccc1N2
- IC50 [3]: 1100 nM

- Ratio (D(1A) dopamine receptor [6]): 10
- Ki [9]: 0.094 nM
- Drug metabolism [4]: 0.53 µmol/L
- Ki (D(1A) dopamine receptor [5]): 1.4 nM
- Ki (D(2) dopamine receptor): 28 nM
Compound: CCc1ccc2c(c1)C(C1=C[C@H](C)N(C)CC1)=Nc1cc(Cl)ccc1N2
- Occ50 [7]: 1 nM
- IC50 [3]: 1100 nM
- Occ50 [8]: 6 nM

- Drug metabolism [4]: 0.67 µmol/L
- Ki (D(1A) dopamine receptor [5]): 1.6 nM
- Ki (D(2) dopamine receptor): 124 nM
Compound: C[C@H]1C=C(C2=Nc3ccccc3Nc3ccc(Cl)cc32)CCN1C
- IC50 [3]: 600 nM

- Ki [9]: 0.094 nM
- Drug metabolism [4]: 0.35 µmol/L
- Ki (D(1A) dopamine receptor [5]): 2.3 nM
- Ki (D(2) dopamine receptor): 63 nM
Compound: Cc1ccc2c(c1)C(C1=C[C@H](C)N(C)CC1)=Nc1cc(Cl)ccc1N2

- Ki [9]: 0.14 nM
- Drug metabolism [4]: 0.58 µmol/L
- Ki (D(1A) dopamine receptor [5]): 2 nM
- Ki (D(2) dopamine receptor): 110 nM
Compound: C[C@H]1C=C(C2=Nc3cc(Cl)ccc3Nc3ccc(OC(F)(F)F)cc32)CCN1C
- IC50 [3]: 1900 nM

- Ratio (D(1A) dopamine receptor [6]): 10
- Ki [9]: 0.091 nM
- Drug metabolism [4]: 0.77 µmol/L
- Ki (D(1A) dopamine receptor [5]): 3.7 nM
- Ki (D(2) dopamine receptor): 47 nM
Compound: CCOc1ccc2c(c1)C(C1=C[C@H](C)N(C)CC1)=Nc1cc(Cl)ccc1N2
- IC50 [3]: 900 nM

- Drug metabolism [4]: 0.72 µmol/L
- Ki (D(1A) dopamine receptor [5]): 0.9 nM
- Ki (D(2) dopamine receptor): 106 nM
Compound: C[C@H]1C=C(C2=Nc3cc(Cl)ccc3Nc3ccc(Cl)cc32)CCN1C
- IC50 [3]: 900 nM
